Reference: BindingDB's records for doi:10.1016/j.bmc.2005.05.065 (National Taiwan University, 2005)

Target: Replicase polyprotein 1ab (Severe acute respiratory syndrome coronavirus, UniProt P0C6X7)
Assay: SARS-CoV 3CL Protease Inhibition Assay
Conditions: pH 7; 25 °C
Method: The effects of compound on enzyme activity were measured by using a fluorogenic peptide cleavage assay. Enhanced fluorescence caused by cleavage of the substrate peptide was monitored at 538 nm with excitation at 355 nm. The Ki measurements were performed at two fixed inhibitor concentrations and various substrate concentrations.

CCOC(=O)/C=C/[C@H](C[C@@H]1CCNC1=O)NC(=O)[C@@H](CC(=O)[C@@H](NC(=O)c1cc(C)on1)C(C)C)Cc1ccc(F)cc1 [ethyl (2E,4S)-4-[((2R,5S)-2-(4-fluorobenzyl)-6-methyl-5-{[(5-methylisoxazol-3-yl)carbonyl]amino}-4-oxoheptanoyl)amino]-5-[(3S)-2-oxopyrrolidin-3-yl]pent-2-enoate]
IC50: > 100 µM
